Results taken from the NIST ThermoML archive (doi:10.1021/je4006739).
± gives the expanded uncertainty stated by the source.

Details: Liquid; for mass density: 293.15 K, 101.33 kPa, Vibrating tube method; for Normal boiling temperature: Ebulliometric method (Recirculating still)

Row | Structure (SMILES) | mass density [kg/m3] | Normal boiling temperature [°C]
1 | CCc1ccccc1 [ethylbenzene] | 863.64 ± 0.23 | 136.10 ± 1
2 | C[S+](C)[O-] [dimethyl sulfoxide] | 1092.48 ± 0.27 | 189.10 ± 1
3 | CCOCCO [2-ethoxyethan-1-ol] | 928.92 ± 0.23 | 135.20 ± 1
